Data taken from PMC10826971, “Evaluating protein cross-linking as a therapeutic strategy to stabilize SOD1 variants in a mouse model of familial ALS” (PLOS Biology, 2024).
Entries after “also recorded” stand apart in the source; their conditions may differ.

Assays:
SOD1^G85R = target: T1, SOD1^G85R (Homo sapiens, UniProt P00441, G86R); assay: Differential scanning fluorimetry (DSF), thermal stability; type: binding
T1 construct: made in house; host or cells: EGy118ΔSOD1 yeast, YEp351 expression vector
Protocol: (§1) To understand how cross-linking effects SOD1 stability, we quantified changes in unfolding temperature (ΔTu, hereafter thermal stability).
(§2) The effect of cross-link formation on the thermal stability of SOD1 was determined by differential scanning fluorimetry as previously described. […] After incubation, SYPRO Orange (Invitrogen Corporation, Carlsbad, California, USA), an environmentally sensitive fluorescent dye which is quenched in an aqueous environment but becomes unquenched once it binds hydrophobic residues, was added to the reaction mixture to a final concentration of 200×. The samples were then transferred to a fast optical 96-well reaction plate (Applied Biosystem, Life Technologies Corporation, Carlsbad, California, USA) and loaded on to the real-time PCR machine (Applied Biosystem, Life Technologies Corporation, Carlsbad, California, USA) after plate was spun down to eliminate bubbles. The Melt curve template in StepOne Plus software was used to set up a method. […] The final concentration of DMSO in the reaction mixture was checked as it contributes to the denaturation of proteins. Dilutions were performed accordingly to maintain the final concentration of DMSO less than 1% (vol/vol). All samples were run in technical triplicates. The background data was subtracted from the average relative fluorescence and average derivate for each temperature point, and the data were normalized before Tus were quantified by averaging the negative first derivative of relative fluorescence of all 3 runs and identifying the local minima.

SOD1^G93A = SOD1^G93A (Homo sapiens, UniProt P00441, G94A); assay: as above; type: binding; design: made in house; host or cells: EGy118ΔSOD1 yeast, YEp351 expression vector; details: 10-fold molar excess S-XL6, 4 h 37°C; untreated 70.6°C
Protocol: as §1
as §2, with “Dilutions were performed accordingly to maintain the final concentration of DMSO less than 1% (vol/vol). All samples were run in technical triplicates.” left out

wild-type SOD1 = wild-type SOD1 (Homo sapiens, UniProt P00441); assay: as above; type: binding; design: made in house; host or cells: EGy118ΔSOD1 yeast, YEp351 expression vector; details: 10-fold molar excess S-XL6, 4 h 37°C; untreated 75.9°C
Protocol: as §1
as §2, with “Dilutions were performed accordingly to maintain the final concentration of DMSO less than 1% (vol/vol). All samples were run in technical triplicates.” left out

SOD1 variants [1] = assay: Plate-based and gel-based SOD1 enzymatic activity assays (results in words); type: biochemical, human
Protocol: (§3) Enzymatic activity of SOD1 variants were assessed using a gel-based assay with riboflavin and nitroblue tetrazolium (NBT) as previously described. […] The samples were mixed with native sample buffer (Bio-Rad) in a 1:1 ratio and were loaded into each well to a 12% polyacrylamide gel (Bio-Rad). The gel was stained in dark using 50 mM potassium phosphate (pH 7.8), 0.13 mg/mL of NBT, and 0.1 mg/mL of riboflavin for 45 min. The gel was exposed to light for with 1 μL/mL of N,N,N^′,N^′-tetramethylethylenediamine (TEMED) for 2 min. SOD1 activity can be seen as colorless bands as the SOD1 scavenges the superoxide that inhibits insoluble blue color formazan formation.
(§4) All samples were prepared as described in gel-based enzymatic activity assay section and were (10 μL) mixed with 160 μL of solution A (6,000 units/mL catalase, 10 mM hypoxanthine, and 5 mM XTT) and 160 μL of solution B (xanthine oxidase 16 mg/mL) in a flat-bottom 96-well plate and was monitored for absorbance at 490 nm for 30 min. All samples were analyzed in technical triplicate using slope function in Microsoft Excel.

SOD1 variants [2] = target: T2, SOD1 variants (Homo sapiens, UniProt P00441, H47R); assay: as above; type: biochemical; details: plate-based and gel-based assays
T2 construct: made in house; host or cells: EGy118ΔSOD1 yeast, YEp351 expression vector
Protocol: as §3, §4

SOD1 = target: T3, SOD1 (Homo sapiens, UniProt P00441, G94A); assay: Target engagement in blood during the survival studies; type: in vivo, mouse
T3 construct: Extraction of SOD1^G93A from red blood cell (RBC) protein was performed as previously described; tissue Jackson Laboratory 002726; host or cells: red blood cells of transgenic B6SJL-Tg(SOD1*G93A)1Gur/J mice
Description: Two fALS lines were used to assess survival in genetic backgrounds with different disease severity. […] Dose and dose regimen were estimated from the blood PK/PD profile and BBB penetration described above. A subcutaneous (SC) route of administration was chosen because in our hands it results in more precise delivery. […] In both studies, mice were gender and littermate matched and non ALS-related deaths were excluded. We are currently developing the methods necessary for quantifying copy number and cannot rule out reduced SOD1 expression as having contributed to the survival benefit in treated B6 G93A mice.
The data underlying this figure can be found in S1 Data. fALS, familial amyotrophic lateral sclerosis.

T1 sequence (P00441 2-154 G86R limits assumed): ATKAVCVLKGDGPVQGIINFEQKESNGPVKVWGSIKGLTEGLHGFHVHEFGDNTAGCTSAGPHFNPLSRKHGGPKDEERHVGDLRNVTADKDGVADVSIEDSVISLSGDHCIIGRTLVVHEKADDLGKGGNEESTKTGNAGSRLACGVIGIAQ
T2 sequence (P00441 2-154 H47R): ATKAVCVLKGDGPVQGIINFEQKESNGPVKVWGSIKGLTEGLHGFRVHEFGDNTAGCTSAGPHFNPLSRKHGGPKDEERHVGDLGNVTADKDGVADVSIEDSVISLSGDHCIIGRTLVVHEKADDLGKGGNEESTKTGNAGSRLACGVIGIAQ
T3 sequence (P00441 2-154 G94A limits assumed): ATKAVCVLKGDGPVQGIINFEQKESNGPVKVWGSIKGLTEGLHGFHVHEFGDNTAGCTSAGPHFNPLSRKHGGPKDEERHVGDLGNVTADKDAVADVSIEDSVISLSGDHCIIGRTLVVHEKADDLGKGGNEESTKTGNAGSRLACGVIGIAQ
Chain of SOD1^G93A (P00441 2-154 G94A limits assumed): as above
Chain of wild-type SOD1 (P00441 2-154 limits assumed): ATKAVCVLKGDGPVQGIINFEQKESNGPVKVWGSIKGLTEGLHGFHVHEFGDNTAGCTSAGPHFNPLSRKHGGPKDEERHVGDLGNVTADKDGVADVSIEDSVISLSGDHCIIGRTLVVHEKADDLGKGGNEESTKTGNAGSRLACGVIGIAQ

SMILES: [O-][S+]1CCCCS1 (centres unmarked) [S-XL6, 1,2-dithiane-1-oxide]
- unfolding temperature (Tu) of S-XL6 cross-linked protein (SOD1^G85R; 10-fold molar excess S-XL6, 4 h 37°C, untreated 40.8°C): 65.1 °C
- Normalized ROX (SOD1^G85R; SOD1 G85R Protein+S-XL6, Avg. Temp 88.557): 0.19
- Normalized ROX (SOD1^G85R; SOD1 G85R Protein+S-XL6, Avg. Temp 88.853): 0.18
- Normalized ROX (SOD1^G85R; SOD1 G85R Protein+S-XL6, Avg. Temp 89.160): 0.17
- Normalized ROX (SOD1^G85R; SOD1 G85R Protein+S-XL6, Avg. Temp 89.454): 0.17
- Normalized ROX (SOD1^G85R; SOD1 G85R Protein+S-XL6, Avg. Temp 89.762): 0.16
- Normalized ROX (SOD1^G85R; SOD1 G85R Protein+S-XL6, Avg. Temp 90.051): 0.15
- Normalized ROX (SOD1^G85R; SOD1 G85R Protein+S-XL6, Avg. Temp 90.354): 0.15
- Normalized ROX (SOD1^G85R; SOD1 G85R Protein+S-XL6, Avg. Temp 90.655): 0.14
- Normalized ROX (SOD1^G85R; SOD1 G85R Protein+S-XL6, Avg. Temp 90.952): 0.13
- Normalized ROX (SOD1^G85R; SOD1 G85R Protein+S-XL6, Avg. Temp 91.251): 0.13
- Normalized ROX (SOD1^G85R; SOD1 G85R Protein+S-XL6, Avg. Temp 91.555): 0.12
- Normalized ROX (SOD1^G85R; SOD1 G85R Protein+S-XL6, Avg. Temp 91.855): 0.11
- Normalized ROX (SOD1^G85R; SOD1 G85R Protein+S-XL6, Avg. Temp 92.157): 0.11
- Normalized ROX (SOD1^G85R; SOD1 G85R Protein+S-XL6, Avg. Temp 92.449): 0.10
- Normalized ROX (SOD1^G85R; SOD1 G85R Protein+S-XL6, Avg. Temp 92.753): 0.10
- Normalized ROX (SOD1^G85R; SOD1 G85R Protein+S-XL6, Avg. Temp 93.058): 0.09
- Normalized ROX (SOD1^G85R; SOD1 G85R Protein+S-XL6, Avg. Temp 93.353): 0.09
- Normalized ROX (SOD1^G85R; SOD1 G85R Protein+S-XL6, Avg. Temp 93.651): 0.08
- Normalized ROX (SOD1^G85R; SOD1 G85R Protein+S-XL6, Avg. Temp 93.955): 0.0744
- Normalized ROX (SOD1^G85R; SOD1 G85R Protein+S-XL6, Avg. Temp 94.247): 0.07
- Normalized ROX (SOD1^G85R; SOD1 G85R Protein+S-XL6, Avg. Temp 94.552): 0.07
- Normalized ROX (SOD1^G85R; SOD1 G85R Protein+S-XL6, Avg. Temp 94.853): 0.06
- Normalized ROX (SOD1^G85R; SOD1 G85R Protein+S-XL6, Avg. Temp 95.157): 0.06
- Normalized ROX (SOD1^G85R; SOD1 G85R Protein+S-XL6, Avg. Temp 95.458): 0.05
- Normalized ROX (SOD1^G85R; SOD1 G85R Protein+S-XL6, Avg. Temp 95.752): 0.05
- Normalized ROX (SOD1^G85R; SOD1 G85R Protein+S-XL6, Avg. Temp 96.054): 0.044
- Normalized ROX (SOD1^G85R; SOD1 G85R Protein+S-XL6, Avg. Temp 96.360): 0.04
- Normalized ROX (SOD1^G85R; SOD1 G85R Protein+S-XL6, Avg. Temp 96.652): 0.0332
- Normalized ROX (SOD1^G85R; SOD1 G85R Protein+S-XL6, Avg. Temp 96.955): 0.0323
- Normalized ROX (SOD1^G85R; SOD1 G85R Protein+S-XL6, Avg. Temp 97.253): 0.0276
- Normalized ROX (SOD1^G85R; SOD1 G85R Protein+S-XL6, Avg. Temp 97.554): 0.0216
- Normalized ROX (SOD1^G85R; SOD1 G85R Protein+S-XL6, Avg. Temp 97.851): 0.02
- Normalized ROX (SOD1^G85R; SOD1 G85R Protein+S-XL6, Avg. Temp 98.161): 0.0177
- Normalized ROX (SOD1^G85R; SOD1 G85R Protein+S-XL6, Avg. Temp 98.455): 0.0121
- Normalized ROX (SOD1^G85R; SOD1 G85R Protein+S-XL6, Avg. Temp 98.751): 0.0106
- Normalized ROX (SOD1^G85R; SOD1 G85R Protein+S-XL6, Avg. Temp 99.056): 0.00748
- Normalized ROX (SOD1^G85R; SOD1 G85R Protein+S-XL6, Avg. Temp 99.359): 0.00339
- Normalized ROX (SOD1^G85R; SOD1 G85R Protein+S-XL6, Avg. Temp 99.657): 0.00106
- Normalized ROX (SOD1^G85R; SOD1 G85R Protein+S-XL6, Avg. Temp 99.866): 0.00
- unfolding temperature (Tu) of S-XL6 cross-linked protein (SOD1^G93A): 85.0 °C
- unfolding temperature (Tu) of S-XL6 cross-linked protein (wild-type SOD1): 90.2 °C
- Enzymatic activity (SOD1 variants [1]; cross-linked fALS SOD1 variants, summary table): Activity of cross-linked quaternary structures of fALS SOD1 variants are more comparable to uncross-linked wild-type SOD1
- enzymatic activity of SOD1^A4V, SOD1^G93A and SOD1^G85R after cross-linking (SOD1 variants [1]; plate-based and gel-based assays): levels comparable to that of wild-type SOD1; also recorded: increased to that of wild-type SOD1
- enzymatic activity of SOD1^H46R after cross-linking (SOD1 variants [2]): No change in activity; also recorded: did not affect
- target engagement after initial dose (SOD1; B6SJL G93A mice, initial SC dose of 20 mg/kg): lower target engagement than expected
- SOD1 engaged (on average) over time (SOD1; survival studies, 50 mg/kg SC): approximately 40%
